According to patent publication EP0004894A1, “Fertilizer for providing plants with iron” (BAYER AG, priority 1978, dated 1979):

How the values were obtained:
[1] = test system: Chrysanthemum indicum (Sorte: Yellow Delaware); test: Iron deficiency control / leaf uptake test (Eisenmangel-Bekämpfung / Blattaufnehmbarkeits-Test); type: in vivo; settings: for Intenistät der Grünfärbung junger Blätter / Ø Anzahl neu gebildeter Blätter: sprayed twice on fully chlorotic plants
Text: Eisenmangel-Bekämpfung / Blattaufnehmbarkeits-Test
In einem Kultursubstrat der oben angegebenen Zusammensetzung werden Versuchspflanzen angezogen, wobei die Dünung und die Bewässerung dadurch erfolgt, daß man zweimal wöchentlich eine mineralische Eisenmangel-Nährlösung nach Hoagland und Arnon (Circular 347, College of Agriculture, University of California, Berkeley 1950) hinzugibt. Die so angezogenen völlig chlorotischen Versuchspflanzen werden in Fünfblattstadium mit der Wirkstoffzubereitung tropfnaß besprüht, wobei durch Abdecken dafür gesorgt wird, daß die Wirkstoffzubereitung nicht in das Kultursubstrat gelangt. Nach 2 Tagen wird erneut in gleicher Weise mit der Wirkstoffzubereitung besprüht. Die Auswertung erfolgt dann, wenn bei den mit einem wasserlöslichen, handelsüblichen Eisen-Dünger in optimaler Menge behandelten Pflanzen durchschnittlich 3 Blätter neu gebildet sind. Es wird jeweils die durchschnittliche Anzahl neu gebildeteter Blätter bei allen Versuchspflanzen ermittelt. Ferner wird die Intensität der Grünfärbung von neu gebildeten Blättern bonitiert und durch Kennzahlen ausgedrückt.

[2] = Water solubility of the preparation; type: physicochemical
[3] = 0,1 % preparation in spray liquid
[4] = 0,02 % preparation in spray liquid
[5] = 0,5 % preparation in spray liquid

Row | Wasserlöslichkeit des Präparates [2] | Structure (SMILES) | Intenistät der Grünfärbung junger Blätter [1, 3] | Ø Anzahl neu gebildeter Blätter [1, 3] | Intenistät der Grünfärbung junger Blätter [1, 4] | Ø Anzahl neu gebildeter Blätter [1, 4] | Intenistät der Grünfärbung junger Blätter [1, 5] | Ø Anzahl neu gebildeter Blätter [1, 5] | Eisenmangel ([1]; fully chlorotic Chrysanthemum indicum, Sorte Yellow Delaware)
1 | gering | CC(CC(=O)[c-]1cccc1)CC(C)(C)C.[Fe+2].c1cc[cH-]c1 (stereo not drawn) [3,5,5-Trimethylhexanoyl-ferrocen] | 2 | 5 | 3 (25 %-ig chlorotisch) | 4 | 1 (0 %-ig chlorotisch (dunkelgrün)) | 7 | stark verringern oder sogar völlig beheben
2 | gering | CCC(=O)c1cc[cH-]c1.[Fe+2].c1cc[cH-]c1 [Propionylferrocen, reference compound] | 3 (25 %-ig chlorotisch) | 4 | 8 | 3 | 2 | 5 | 
